According to a melting point compilation (Tetko et al.; mined from patent text by program, amines drawn as free bases though some values may be those of a salt):

| SMILES | melting point |
| --- | --- |
| COC(=O)C1Cc2c([nH]c3ccccc23)C(c2ccc(Cl)c(Cl)c2)N1 (configuration not stated) | 90 to 92 °C |
| NS(=O)(=O)c1ccc(CNC(=O)c2ccccc2SSc2ccccc2C(=O)NCc2ccc(S(N)(=O)=O)cc2)cc1 | 267 to 269 °C |
| Cn1c(-c2ccccc2)nc2nc(-c3ccc(Cl)cc3)nn2c1=S | 267 to 270 °C |
| COc1ccc(C(=O)CCC(=O)O)cc1OC1CCCC1 | 111 to 113 °C |
| COC(=O)CCNCc1ccc(-c2cc3ncnc(Nc4ccc5[nH]ccc5c4)c3s2)cc1 | 105 to 118 °C |
| Cc1noc(NS(=O)(=O)c2ccccc2-c2ccc(-c3cccnc3)cc2)c1C | 96 to 106 °C |
| CCN1Cc2ccccc2C(=O)c2cc(CC(=O)O)ccc21 | 141 to 144 °C |
| Cc1ccccc1Nc1nc(N(C)c2ccccc2)c2cccc(OCCCN(C)C)c2n1 | 77 to 79 °C |
| Cc1cc(C)c(Nc2nc(C)ncc2S(=O)(=O)c2ccc(F)cc2)c(C)c1 | 191 to 193 °C |
| CC(C(=O)O)n1ccc2c(OCc3ccccc3)cccc21 (configuration not stated) | 143 to 146 °C |
| CCCOc1ccccc1-c1ccoc1C(=O)NNC(=O)c1ccc(O)c(C#N)c1 | 114 to 117 °C |
| CCCN(CCC)C(=O)C(CCC(N)=O)NC(=O)C=Cc1ccco1 (configuration not stated) | 152 to 153 °C |
| O=C1c2ccccc2C(=O)N1CCC(=O)N(c1ccccc1)c1ccccc1 | 140 °C |
| COc1ccc(N2CCOCC2)cc1NC(=S)c1nc2ccccc2[nH]1 | 236 to 237 °C |
| O=C(NC(SC(=O)c1ccccc1)C(=O)N1CCCC1C(=O)O)c1ccccc1 (configuration not stated) | 202 to 205 °C |
| O[C@H](COc1cccc2[nH]ccc12)CN1CC=C(c2c[nH]c3cccc(F)c23)CC1 | 90 to 95 °C |
| COC(=O)C1CC1c1ccc(OCc2cccc(Oc3ccccc3)c2)cc1 (configuration not stated) | 55 to 56 °C |
| CNC(=O)N(c1ccncc1)n1cccc1 | 156 to 160 °C |
| Cc1ccc2c(=O)n(CCCN3CC=C(c4ccc(Cl)cc4)CC3)c(=O)[nH]c2c1 | 199 to 201 °C |

| SMILES | melting point |
| --- | --- |
| COc1cc(NS(=O)(=O)c2ccc(Cl)cc2)c(C(=O)Nc2ccc(S(=O)(=O)F)cc2)cc1OC | 216 to 219 °C |
| Sc1ccc2c(c1)Sc1ccc(Cl)cc1N2 | 230 to 232 °C |
| CCCCC1(CCCC)Cc2c(O)cccc2C1=O | 114 to 115 °C |
| O=c1ccc(-c2c(-c3ccccc3)nn3ccccc23)nn1[C@H]1CCNC1 | 144 to 146 °C |
| CN1CC(CCCl)Oc2ncccc2C1=S (configuration not stated) | 134 to 136 °C |
| COC(=O)c1ccc2c3cccc4cccc(c5ccc(C(=O)N(C)c6cc(C(C)(C)C)ccc6C(C)(C)C)c1c25)c43 | 297 to 298 °C |
| CC(=O)CNC1(c2ccc(OCCCN(C)C3CCCCC3)cc2)Sc2ccccc2N(C)C1=O (configuration not stated) | 119 to 120 °C |
| CN(c1cccnc1S(N)(=O)=O)S(=O)(=O)CF | 160 to 162 °C |
| O=[N+]([O-])C=C1SCCCN1S(=O)(=O)CCCCl | 99 °C |
| COc1ccc2c(c1)c(CC(=O)OCc1cccnc1)c(C)n2C(=O)c1ccc(Cl)cc1 | 116 to 118 °C |
| CCOC(=O)N1CCC(C(=O)O)=Cc2ccccc21 | 176 °C |
| CN(CCOc1ccc(/C=C/CO)cc1F)c1ccccn1 | 80 to 81 °C |
| O=CNc1ccc(C(=O)N(CCN2CCC(C(=O)c3ccc(F)cc3)CC2)c2cccnc2)cc1 | 147 to 148 °C |
| COC(=O)Cc1ccccc1OCc1ccccc1 | 74 to 75 °C |
| CC12CCC3C(CC=C4CC(O[Si](C)(C)C)CCC43C)C1CCC2=O (configuration not stated) | 173 to 174 °C |
| N#CC(N)C=Cc1ccccc1 (configuration not stated) | 79 °C |
| O=C(N1CCNc2ccccc2C1)n1ccnc1 | 98 to 101 °C |
| CC(C)n1cnc2c(N[C@H](CO)c3ccccc3)nc(NC[C@@H](C)O)nc21 | 109 to 112 °C |
| Cc1noc(NS(=O)(=O)c2c(Cc3ccccc3)sc3ccccc23)c1Br | 120 to 123 °C |

Results, then the molecule that gave them:

| melting point | SMILES |
| --- | --- |
| 160 to 162 °C | CCn1c(=O)sc2cc(C(O)c3ccc([N+](=O)[O-])cc3)ccc21 (configuration not stated) |
| 155 to 158 °C | CCCn1c(=O)c2[nH]c(C3CCCO3)nc2n(CCC)c1=O (configuration not stated) |
| 112 to 114 °C | CC(C)Oc1nc(N)nc2c1ncn2CCC(CO)CO |
| 141 to 142 °C | OCc1ccccc1NCc1cc2c(cc1O)CCCO2 |
| 150 to 151 °C | CON(C)C(=O)C(C)NC(=O)OC(C)(C)C (configuration not stated) |
| 264 to 266 °C | Cc1ccc2c(c1)Oc1ccc([N+](=O)[O-])cc1C(=O)N2 |
| 60.5 to 61.5 °C | Nc1c(Br)cc(OC(F)F)cc1[N+](=O)[O-] |
| 139 °C | NC(=O)c1ccc(F)c2c1CC(N(CCC(=O)c1c[nH]c3ccc(F)cc13)C1CCC1)CO2 (configuration not stated) |
| 225 to 226 °C | COC(=O)c1ccc(-c2cc(-c3ccc(Cl)cc3)on2)cc1 |
| 118 to 120 °C | CSc1c(C#N)c(=O)n(C)c(=O)n1C |
| 139 to 141 °C | CN1c2cscc2C(=O)N(CCN2CCCC2)c2ccccc21 |
| 178 to 182 °C | Cc1ccc(Sc2c(N)cc(C(=O)O)cc2S)cc1 |
| 178 to 180 °C | N#CN1CCN(c2nn(S(=O)(=O)c3ccccc3)c3cc(F)ccc23)CC1 |
| 149 to 150 °C | COC(=O)c1cccc2nc(OC)n(Cc3ccc(-c4ccccc4C#N)cc3)c12 |
| 138 to 139 °C | OC(CNCc1ccccc1)c1cc(C(F)(F)F)nc2c(C(F)(F)F)cccc12 (configuration not stated) |
| 128 to 130 °C | O=C(c1ccc2nonc2c1)N1C2CCCC1COC2 |
| 186 to 187 °C | CCC(C)c1cc2c(cc1O)CC[C@@H]1[C@@H]2CC[C@]2(C)C(=O)CC[C@@H]12 (some centres not stated) |

| melting point | SMILES |
| --- | --- |
| 180 to 185 °C | CC(=O)Nc1nsnc1-c1c(Cl)cccc1Cl |
| 263 to 265 °C | COCc1n[nH]c2c1c(=O)n(-c1ccccc1)c1ncccc21 |
| 198 to 200 °C | O=C(NO)c1ccc(C(=O)NOCCC23CC4CC(CC(C4)C2)C3)cc1 |
| 152 °C | COc1cc(-c2nc3ccc(OCCN(C)C)cc3n2Cc2ccccc2Br)cc(OC)c1OC |
| 130 °C | CN(C)CCCn1c(-c2ccccc2)cc2cc(O)ccc21 |
| 241 to 250 °C | O=C(O)c1ccc2cc(O)c(O)cc2c1 |
| 214 to 217 °C | CC(C)c1n[nH]c2c(NCc3ccccc3O)ncnc12 |
| 124 to 125 °C | CCOc1nc(N)nc(C(F)(F)F)n1 |
| 159 to 162 °C | CCOC(=O)C=Cc1ccc2c(c1)c(-c1cc3cccnc3n1S(=O)(=O)c1ccc(C)cc1)cn2C |
| 215 to 217 °C | O=C(O)C(=O)CC(=O)c1cc(C(=O)CC(=O)C(=O)O)n(Cc2ccc(F)cc2)n1 |
| 149 to 151 °C | O=C(O)Cc1ccccc1SCc1ccc(Cl)cc1 |
| 118 to 119 °C | CC(CCCc1ccccc1)(C(=O)O)c1ccc(CCCNC(=O)c2ccc(-c3ccccn3)cc2)cc1 (configuration not stated) |
| 105 to 108 °C | Cn1c(=O)c2c(ncn2CN2CCCC2)n(C)c1=O |
| 138 °C | O=[N+]([O-])c1c(NCC(O)CO)cccc1NCC(O)CO (configuration not stated) |
| 227 to 228 °C | C=CCc1cc(Cc2cnc(N)nc2N)c2cccnc2c1OC |
| 97 to 99 °C | COC(=O)[C@H](Cc1ccc(O)c(C2SCCS2)c1)NC(C)=O |
| 111 to 115 °C | CCCCCCS(=O)(=O)c1nn2c(=O)cc(C)nc2s1 |
